# Measured values published in US12459951B2, “Compounds that interact with RAS superfamily proteins for treatment of cancers, inflammatory diseases, rasopathies, and fibrotic disease” (SHY Therapeutics, LLC, priority 2022, dated 2025).
# Columns and labels:
# [1] = system: Panc-1 (expressing KRas G12D mutant); assay: Proliferation Assay (Cell Viability Assay); format: cell-based; details: Homo sapiens, Panc1, pancreatic
# Method: Cell lines: Human tumor-derived cell lines were purchased from American Type Culture Collection. Human tumor-derived pancreatic cancer cell line MiaPaca-2 (expressing KRAS G12C mutant) and Panc-1 (expressing KRas G12D mutant), and Human non-small cell lung cancer (NSCLC) cell line A549 (expressing KRas G12S mutant) were grown in complete DMEM-High Glucose medium. Human colon cancer cell line SW-620 (expressing KRas G12V mutant) was grown in RPMI 1640 medium. All cell lines were supplemented with penicillin (100 U/mL), streptomycin (100 μg/mL), and 10% heat-inactivated FBS at 37° C. in a humidified incubator with 5% CO2.
# (§1) Method: Cells were plated at 2000 to 5000 cells/well density in 96-wells plate and cultured overnight. Small molecules to be tested were added to the cells in the final concentration of 10 μM in the presence of 0.3% DMSO and 10% FBS and incubated for 2-4 days at 37° C. in a humidified incubator with 5% CO2. For IC50 value determination, serial dilutions of compounds were added to cells under the same conditions.
# Assay: At the end of the incubation period, cell viability was determined using the CellTiter 96® Aqueous One Solution Cell Proliferation Assay according to manufacturer specifications (Promega, Madison, WI). The percentage of small molecules inhibition of cellular proliferation was calculated from raw data.
# Cell lines: these Human tumor-derived cell lines were purchased from American Type Culture Collection. Human tumor-derived pancreatic cancer cell line MiaPaca-2 (expressing KRAS G12C mutant) and Panc-1 (expressing KRas G12D mutant), and Human non-small cell lung cancer (NSCLC) cell line A549 (expressing KRas G12S mutant), and Human melanoma cell line A375 (wild type Kras) were grown in complete DMEM-High Glucose medium. Human tumor-derived pancreatic cancer cell lines SU86.86 (expressing KRas G12D mutant), BxPC3 (expressing wild type K-Ras), and Human non-small cell lung cancer (NSCLC) cell lines NCI-H441 (expressing KRas G12S mutant), NCI-H1975 (expressing wild type KRas), NCI-H358 (expressing KRas G12C mutant), NCI-H1299 (expressing NRas Q61H mutant), and Human colon cancer cell line SW-620 (expressing KRas G12V mutant), Human triple negative breast cancer cell line HCC-1806 (expressing wild type KRas), and Human tumor-derived multiple myeloma cell line MM.1R (expressing wild type KRAS), were grown in RPMI 1640 medium. Human tumor-derived breast cancer cell line BT-549 (expressing wild type KRAS) was grown in RPMI 1640 medium in the presence of 11.8U insulin. Human tumor-derived pancreatic cancer cell line HPAF-II (expressing KRas G12D mutant), Human triple negative breast cancer cell line BT-20 (expressing wild type KRas), and Human colon cancer cell line LS123 (expressing KRas G12S mutant), were grown in EMEM medium. Human tumor-derived pancreatic cancer cell line CF-PAC1 (expressing KRas G12V mutant) was frown in IMDM medium, and Human colon cancer cell line HT29 (expressing wild type KRas) was grown in McCoy's 5A medium. The colon cancer cell line GP2d (expressing KRas G12D mutant) was purchased from MilliporeSigma and grown in DMEM-High Glucose medium. All cell lines were supplemented with penicillin (100 U/mL), streptomycin (100 μg/mL), and 10% heat-inactivated FBS at 37° C. in a humidified incubator with 5% CO2.
# as §1, with “that were” for “to be”, “FBS,” for “FBS”
# [2] = system: active/cleaved caspase 6; assay: Cell-based caspase activation assay (western blot); design: species or system human
# Method: (§2) Biological Example 4: Puma Expression and Caspases Activation Assay
# (§3) Protocols for Cell-Based Puma Expression and Caspase Activation Assays
# (§4) Cell lines: All human tumor-derived cancer cell lines were purchased from American Type Culture Collection. Human tumor-derived cancer cell lines Panc-1 (expressing KRas G12D mutant), MiaPaca-2 (expressing KRas G12C mutant), A549 (expressing KRas G12S mutant), and A375 (expressing wild type KRas) were grown in complete DMEM-High Glucose medium and NCI-H1975 (expressing wild type KRas), MM.1R (expressing wild type KRas) and IM.9 (expressing wild type KRas) were grown in RPMI1640 medium. Human tumor-derived cancer cell line BT-549 (expressing wild type KRas) was grown in RPMI1640 medium with 11.8U insulin. All mediums were supplemented with penicillin (100 U/mL), streptomycin (100 μg/mL), and 10% heat-inactivated FBS at 37° C. in a humidified incubator with 5% CO2.
# (§5) Method: Cells were plated at 300,000 to 800,000 cells/well density in a 6-well plate in the presence of 10% FBS. The next day small molecules to be tested were added to the cells in the final concentration of 3 μM in the presence of 0.3% DMSO for 48 hours incubation at 37° C. For IC50 value determination, serial dilutions of compounds were added to cells under the same conditions. Following 48 hours of incubation cells were lysed with lysis buffer containing 1% Triton X-100, EDTA, and Halt™ Protease & Phosphatase Inhibitor Cocktail (Thermo Scientific). Protein concentration was assessed by BCA protein assay (Thermo Scientific). Increase expression of PUMA and active/cleaved forms of caspase 3, caspase 6 and caspase 9 were detected by western blot.
# (§6) Western blot protocol: Equal amounts of protein (15-50 μg) were separated by SDS-PAGE and transferred to nitrocellulose membranes (Invitrogen by Thermo Fisher Scientific). The membrane was stained with Ponceau S Stain (Boston BioProducts) to verify uniform protein loading. Membranes were blocked with 10% milk and expression levels of PUMA was assessed by incubating overnight at 4° C. with the antibody PUMA (D30C10) from Cell Signaling Technology (#12450) and active/cleaved forms of caspase 3, caspase 6 and caspase 9 by incubating overnight at 4° C. with the following antibodies: cleaved caspase-3 (Asp175) (5A1E), cleaved caspase-6 (Asp162) and cleaved caspase-9 (Asp330) (D2D4) (all antibodies from Cell Signaling Technology). Then the membranes were incubated with HRP-conjugated secondary antibody (Jackson Immunoresearch, West Grove, PA). Bands were incubated in Amersham ECL Prime Western Blotting Detection Reagent (GE Healthcare) and visualized using the ChemiDoc MP imaging system (Bio-Rad).
# [3] = system: active/cleaved caspase 9; assay: Cell-based caspase activation assay (western blot); design: species or system human
# Method: as §2, §3, §4, §5, §6
# [4] = system: active/cleaved caspase 3; assay: Cell-based caspase activation assay (western blot); design: species or system human
# Method: as §2, §3, §4, §5, §6
smiles,measurement,setting,value
"COc1ccnc(Nc2nc(-c3nccn3C)nn3cc(-c4ccn(C(C)C)n4)c(C)c23)c1 [Compound 58, 6-(1-Isopropyl-1H-pyrazol-3-yl)-N-(4-methoxypyridin-2-yl)-5-methyl-2-(1-methyl-1H-imidazol-2-yl)pyrrolo[2,1-f][1,2,4]triazin-4-amine]",IC50,[1],< 150 nM
same,Caspase 6 activation,"[2]; A549, after 48 hours",yes
same,Caspase 6 activation,"[2]; BT-549, after 48 hours",yes
same,Caspase 6 activation,"[2]; MiaPaca2, after 48 hours",yes
same,Caspase 9 activation,"[3]; A549, after 48 hours",yes
same,Caspase 9 activation,"[3]; BT-549, after 48 hours",yes
same,Caspase 9 activation,"[3]; MiaPaca2, after 48 hours",yes
same,Caspase 3 activation,"[4]; A549, after 48 hours",yes
same,Caspase 3 activation,"[4]; BT-549, after 48 hours",yes
same,Caspase 3 activation,"[4]; MiaPaca2, after 48 hours",yes
